Experimental data as given in US9777021B2, “Lubricant additives” (Qatar Foundation, priority 2016, dated 2017).

Key:
[1] = Solubility in base oil; assay type: physicochemical
Procedure: (§1) Silver complex 1 was combined with PAO4 and 15W40 military-grade engine oil (FF oil). The complex was dissolved in the minimal amount of hexane (1 mL per 1 g silver complex) and then added to the oil to achieve complex concentrations of 1.0, 2.5 and 5.0 wt %. Before testing, the oil-silver complex mixtures were stirred with a magnetic stir bar for 30 minutes to ensure a homogeneous dispersion.
Solubility in base oil is an important property for tribologically promising high temperature additives, and is something that challenged previous generations of silver-organic additives.
Silver complex 1 was added to oil at 0.0, 1.0, 2.5, and 5 wt % loadings. A minimal amount of hexanes was added to aid in solubilizing the complex (1 mL hexanes/g of complex) before mixing with oil.

[2] = Wear analysis by white light interferometry of wear scars; settings: disks of temperature ramp tests
Procedure: After friction tests were completed, the disks were sonicated in a hexane bath to remove oil residue. The volume of the wear scar was measured using a Zygo NewView 7100 white light interferometer. The wear volume and material buildup around the wear scar were used to calculate the wear rate, which is defined as the volume removed per unit load per sliding distance. Each additive concentration in oil was tested twice for friction and wear performance. Energy-dispersive X-ray spectroscopy (EDS) on Hitachi S4800-II and Hitachi SU8030 Scanning Electron Microscopes (SEMs) was used to examine the morphology of the disk surface and deposited silver content.
The disks used in the temperature ramp tests (FIG. 8) were next analyzed by white light interferometry to determine the volume of the wear scars and the material buildup outside of the scar. The volume of material removed was normalized for load and the distance traveled during the test. […] The trend in wear rate is similar to the trend in COF (FIG. 7), with a 2.5 wt % loading producing the lowest amounts of wear. […] It is hypothesized that the increase in efficiency of additive 1 is attributable to the increased number of silver atoms/molecule and improved solubility in oil, which enables better dispersion of the additive in base oil.

[3] = Temperature-ramped pin-on-disk (ball-on-disk) tribometry, friction (COF); settings: for friction reduction: temperature ramp 180 to 350° C. over 30 min
Procedure: as §1
Table 1 outlines the experimental conditions used in this study. A ball bearing made of M50 bearing steel with 62 HRC hardness and a diameter of 4 mm is used to apply a vertical load to a 52100 steel disk with 50 HRC hardness and a diameter to 3″ as the disk rotates. The surface of the disk is coated with a 2 mL solution of 1 in the desired base oil. The sliding test conditions for all the experiments were: Normal load=25 N, sliding velocity=200 rpm. In the temperature ramp experiments, the temperature is increased from 180-350° C. over 30 min in order to detect any change in frictional characteristics as the oil degrades, and partially evaporates, and once the metallic Ag is deposited.
Silver complex 1 was added to oil at 0.0, 1.0, 2.5, and 5 wt % loadings. A minimal amount of hexanes was added to aid in solubilizing the complex (1 mL hexanes/g of complex) before mixing with oil. The oils used are PAO4, a base oil with no additives, and a military-grade 15W40 oil, which is fully formulated (FF) but contains no silver-containing additives (confirmed by elemental analysis).

solubility in PAO4 ([1]; 5 wt % loading, gentle heating at 40° C.): homogeneous solution
solubility in oil (PAO4 or 15W40) ([1]; cloudy suspension at room temperature, heating to 40° C. and magnetic stirring, 1 mL hexanes/g of complex): dissolves fully
COF behaviour as the oil begins to degrade above ~275° C. ([3]; 2.5 wt % loading in either base oil (PAO4, 15W40), temperature ramp 180 to 350° C.): the COF does not increase
SMILES: CCCCCCc1c(C)n[n-]c1C.[Ag+] [Compound 1, Ag(3,5-dimethyl-4-n-hexyl-pyrazole)]
wear reduction ([2]; 2.5 wt % loading in 15W40): 70%
wear reduction ([2]; 2.5 wt % loading in PAO4): 60%
friction reduction ([3]; 2.5 wt % loading in 15W40): 30%
friction reduction ([3]; 2.5 wt % loading in PAO4): 20%
